From article PMC9862227, “ATP and nucleic acids competitively modulate LLPS of the SARS-CoV2 nucleocapsid protein” (Communications Biology, 2023)

Molecular target: T1, N (1-249) (Severe acute respiratory syndrome coronavirus 2, UniProt P0DTC9)
T1 construct: fragment 1-249 of the 419-residue protein (IDR1, NTD, IDR2); pET-28a, N-terminal 6xHis-SUMO tag removed with TEV protease; E. coli BL21; 15N-labelled
Assay: biochemical
Format: binding

With `Nc1ncnc2c1ncn2[C@@H]1O[C@H](COP(=O)(O)OP(=O)(O)OP(=O)(O)O)[C@@H](O)[C@H]1O` [ATP] as the compound, how does the Kd read?
Its Kd is 2000 ± 200 µM.
